Source: PMC8743659, “C1632 suppresses the migration and proliferation of non‐small‐cell lung cancer cells involving LIN28 and FGFR1 pathway” (Journal of Cellular and Molecular Medicine, 2021)
“Also recorded” adds a separate entry of the source. Like-named read-outs stand apart in the source and are kept apart here.

Legend:
[1] = test system: A549R cells; assay: Transwell migration and invasion assay; assay type: cell-based, human; conditions: pretreated 5 days, 24 h
Description: (§1) Transwell assay was carried out according to the manufacturer's instructions provided by Transwell Kit (Corning Costar). Briefly, cells were pretreated with indicated concentrations of C1632 for 5 days, then harvested and re‐seeded into insert (transwell permeable support) containing 100 μl serum‐free DMEM medium. The insert was placed into 24‐well plate containing 600 μl of DMEM medium extra added with 10% FBS. 24 h later, cells on the upper surface of the insert were removed with cotton‐tipped swabs. And cells on backside surface of the insert were fixed with 10% formalin, then stained with crystal violet. The insert was washed three times with ddH2O before it is subjected to Nikon Ti microscope observation. Additionally, these inserts were dissolved in 500 μl acetic acid (33%) separately, and the absorbance at 560 nm was detected by the spectrophotometer (DTX880, Beckman Coulter).

[2] = test system: A549 cells; assay: Transwell migration and invasion assay; assay type: cell-based, human; conditions: A549, pretreated 5 days, 24 h
Description: as §1

[3] = test system: A549R cells; assay: Annexin V/PI apoptosis assay; assay type: cell-based, human; conditions: A549R, 15, 30 or 60 mg/L, 5 days
Description: (§2) Cells were seeded in 6 cm^2 dish with a density of 3.0 × 10^5 cells per dish and treated with C1632 with final concentration of 15, 30, and 60 mg/L or 0.01% DMSO for 5 days. Then the assay was performed following the protocol provided by the Annexin V/PI Apoptosis Kit (Sigma) and was assessed on a flow cytometer (BD FACSCalibur, BD Biosciences).

[4] = test system: A549 cells; assay: Annexin V/PI apoptosis assay; assay type: cell-based, human; conditions: A549, 15, 30 or 60 mg/L, 5 days
Description: as §2

[5] = Pharmacokinetic study, plasma by UHPLC-MS/MS; assay type: in vivo, Sprague-Dawley (SD) rats; conditions: for MRT last: read-out: MRT(0-t); for half-life: read-out: t1/2z (converted)
Description: Agilent 1290 UHPLC system and 6420 series Triple‐Quadrupole Tandem Mass Spectrometer (Agilent Corporation) maintained at 35°C with a ZORBAX Eclipse Plus C18 column (1.8 μm, 2.1 × 50 mm). The mobile phase was a gradient elution program consisting of solvent A with solvent B at a flow rate of 0.4 ml/min. Mobile phase A was 0.1% formic acid in water (v/v), and mobile phase B was acetonitrile. The optimal gradient elution program was as follows: 0–0.5 min, linear from 80% to 5% A; 0.5–1.5 min, 5% A; 1.5–1.6 min, linear from 5% to 80% A. The post‐time was 1.3 min for equilibration of the column and the total runtime was 1.8 min. The mass spectrometer was acquired in an ESI‐positive mode with multiple reaction monitoring (MRM). Instrument control and data acquisition were performed on the MassHunter Agilent Software (version B.07.00).
The desolation gas (nitrogen) flow was set to 10 L/h: the capillary voltage: 4000 V; nebulizing gas and drying gas (both nitrogen): 45 psi and 350°C, respectively. The MRM mode with m/z 282.2→76.9 for C1632 and m/z 282.1→194.0 for IS was used for quantitative analysis.
Male SD rats were starved for 12 h before the experiment. But, tap water was available ad libitum. C1632 was administered orally or intravenously at the dose of 20 mg/kg (p.o.), 4 mg/kg (i.v.), respectively (n = 6). Blood samples were collected into heparinized polythene tubes 0.083, 0.25, 0.5, 1, 2, 4, 6, 9, 12, 24 h after dosing. As followed, the samples were centrifuged at 14,954 g for 10 min. Add acetonitrile (400 µl) and IS (20 µl) into collected plasma samples (100 µl). Thereafter, the samples were vortexed for 2 min, followed by centrifugation at 14,954 g for 10 min. Remove the supernatants to 1.5 ml tube and the sample is ready for detection by established UHPLC‐MS/MS assay. The injection volume is 6 µl. The pharmacokinetic parameters were determined using DAS software (Version 3.0).

[6] = test system: A549R cells; assay: Cell adhesion assay; assay type: cell-based, human; conditions: fibronectin-coated plate, concentration-dependent
Description: (§3) The cell adhesion assay was performed as indicated previously.[38] Briefly, the 96‐well plate was coated with human fibronectin (Millipore), and then cells were seeded into the 96‐well plate and cultured for another 1 h at 37°C in a 5% CO2 incubator. Finally, rinsing the plate before fixed with 10% formalin and stained with crystal violet. As followed, wash the plate with ddH2O and add 100 μl acetic acid (33%) into the plate to dissolve the crystal violet. The absorbance at 560 nm was detected by Synergy H1 Multi‐Mode Reader (BioTek). Relative number of cells attaching to extracellular matrix was evaluated using the following equation: mean OD of treated cells/mean OD of control cells.

[7] = test system: A549 cells; assay: Cell adhesion assay; assay type: cell-based, human; conditions: A549, fibronectin-coated plate, concentration-dependent
Description: as §3

[8] = male, Sprague-Dawley, iv, rat plasma, i.v. 4 mg/kg
[9] = male, Sprague-Dawley, po, rat plasma, p.o. 20 mg/kg

- AUC(0-t) [5, 8]: 4090 ± 1630 ng·h/mL
- Cmax [5, 8]: 2070 ± 338 ng/mL
- Tmax [5, 8]: 0.53 ± 0.74 h
- MRT last [5, 8]: 1.57 ± 0.74 h
- half-life [5, 8]: 1.14 ± 0.52 h
- AUC(0-t) [5, 9]: 9100 ± 3830 ng·h/mL
- Cmax [5, 9]: 4240 ± 2680 ng/mL
- Tmax [5, 9]: 1.04 ± 0.78 h
- CL/F ([5]; male, Sprague-Dawley, po, rat plasma, p.o. 20 mg/kg, read-out: CLz/F (converted)): 46.2 mL/min/kg
- MRT last [5, 9]: 1.88 ± 0.42 h
- Vd/F ([5]; male, Sprague-Dawley, po, rat plasma, p.o. 20 mg/kg, read-out: Vz/F): 4.54 ± 4.68 L/kg
- half-life [5, 9]: 1.05 ± 0.6 h
- bioavailability ([5]; male, Sprague-Dawley, rat, plasma, oral, 20 mg/kg, rats, p.o. 20 mg/kg vs i.v. 4 mg/kg, read-out: F (bioavailability)): 44.5%
- time of second peak of the plasma concentration-time curve ([5]; oral administration group, 20 mg/kg): 1 h
- CLz/F ([5]; rat plasma, i.v. 4 mg/kg): 18.8 ± 8.5 mL/min/kg
- Vz/F ([5]; rat plasma, i.v. 4 mg/kg): 2.05 ± 1.66 L/kg
Structure (SMILES): CC(=O)N(C)c1cccc(-c2ccc3nnc(C)n3n2)c1 [C1632]
- Transwell migration compared with untreated cells [1]: decreased migration
- Transwell migration compared with untreated cells [2]: decreased migration
- apoptosis [3]: limited effects; also recorded: did not significantly increase
- apoptosis [4]: induces apoptosis
- cell adhesion to the matrix [6]: significant decrease
- cell adhesion to the matrix [7]: significant decrease
